Measured values published in patent publication US20120122860A1, “SOLID FORMS OF SULFONAMIDES AND AMINO ACIDS” (Plexxikon, Inc., priority 2009, published 2012).

Columns and labels:
MAP4K4 = MAP4K4 (Homo sapiens, UniProt O95819); assay: Kinase activity assay, MAP4K4
Kdr = Kdr (Homo sapiens, UniProt P35968); assay: Kinase activity assay, Kdr
Kit = Kit (Homo sapiens, UniProt P10721); assay: Kinase activity assay, Kit
B-Raf = B-Raf (Homo sapiens, UniProt P15056); assay: Kinase activity assay, B-Raf; assay type: biochemical; conditions: read-out: activity toward kinase B-Raf, IC50
Chain of B-Raf (P15056 whole entry): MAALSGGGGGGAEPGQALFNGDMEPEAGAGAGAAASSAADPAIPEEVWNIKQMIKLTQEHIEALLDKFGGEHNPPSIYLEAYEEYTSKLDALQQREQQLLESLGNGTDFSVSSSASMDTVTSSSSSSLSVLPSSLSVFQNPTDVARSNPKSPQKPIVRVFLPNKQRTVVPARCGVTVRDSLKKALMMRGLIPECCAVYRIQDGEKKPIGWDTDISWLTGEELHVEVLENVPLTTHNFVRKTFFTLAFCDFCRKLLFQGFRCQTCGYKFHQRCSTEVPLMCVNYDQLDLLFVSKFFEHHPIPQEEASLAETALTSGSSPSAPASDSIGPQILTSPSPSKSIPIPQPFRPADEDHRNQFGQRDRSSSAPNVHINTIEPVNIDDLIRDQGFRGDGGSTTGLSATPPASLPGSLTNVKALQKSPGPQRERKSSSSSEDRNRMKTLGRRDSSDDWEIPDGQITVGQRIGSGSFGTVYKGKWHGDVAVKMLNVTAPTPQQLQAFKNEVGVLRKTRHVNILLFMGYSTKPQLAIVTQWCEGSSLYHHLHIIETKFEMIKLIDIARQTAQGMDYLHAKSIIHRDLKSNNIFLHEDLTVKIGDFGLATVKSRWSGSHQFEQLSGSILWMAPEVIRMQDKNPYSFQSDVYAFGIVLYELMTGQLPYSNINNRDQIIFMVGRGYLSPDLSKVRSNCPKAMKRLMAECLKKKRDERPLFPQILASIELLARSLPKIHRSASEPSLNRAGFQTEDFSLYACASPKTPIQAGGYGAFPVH

Src = Src (Homo sapiens, UniProt P12931); assay: Kinase activity assay, Src
Chain of Src (P12931 whole entry): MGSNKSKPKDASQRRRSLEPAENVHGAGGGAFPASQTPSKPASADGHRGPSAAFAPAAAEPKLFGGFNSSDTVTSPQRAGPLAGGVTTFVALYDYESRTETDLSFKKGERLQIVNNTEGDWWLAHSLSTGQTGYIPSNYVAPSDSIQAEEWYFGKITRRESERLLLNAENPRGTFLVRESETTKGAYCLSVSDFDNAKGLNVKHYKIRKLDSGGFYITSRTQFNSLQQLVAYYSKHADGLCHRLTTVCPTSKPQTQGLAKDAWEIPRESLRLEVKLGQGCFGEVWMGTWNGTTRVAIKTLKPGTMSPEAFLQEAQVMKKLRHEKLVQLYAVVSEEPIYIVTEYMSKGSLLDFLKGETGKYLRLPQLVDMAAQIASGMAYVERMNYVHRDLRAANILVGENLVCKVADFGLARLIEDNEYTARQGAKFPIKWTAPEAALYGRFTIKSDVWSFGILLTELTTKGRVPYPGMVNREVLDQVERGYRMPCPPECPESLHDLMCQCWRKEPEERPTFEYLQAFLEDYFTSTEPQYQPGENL

C-Raf = C-Raf (Homo sapiens, UniProt P04049); assay: Kinase activity assay, C-Raf
Chain of C-Raf (P04049 whole entry): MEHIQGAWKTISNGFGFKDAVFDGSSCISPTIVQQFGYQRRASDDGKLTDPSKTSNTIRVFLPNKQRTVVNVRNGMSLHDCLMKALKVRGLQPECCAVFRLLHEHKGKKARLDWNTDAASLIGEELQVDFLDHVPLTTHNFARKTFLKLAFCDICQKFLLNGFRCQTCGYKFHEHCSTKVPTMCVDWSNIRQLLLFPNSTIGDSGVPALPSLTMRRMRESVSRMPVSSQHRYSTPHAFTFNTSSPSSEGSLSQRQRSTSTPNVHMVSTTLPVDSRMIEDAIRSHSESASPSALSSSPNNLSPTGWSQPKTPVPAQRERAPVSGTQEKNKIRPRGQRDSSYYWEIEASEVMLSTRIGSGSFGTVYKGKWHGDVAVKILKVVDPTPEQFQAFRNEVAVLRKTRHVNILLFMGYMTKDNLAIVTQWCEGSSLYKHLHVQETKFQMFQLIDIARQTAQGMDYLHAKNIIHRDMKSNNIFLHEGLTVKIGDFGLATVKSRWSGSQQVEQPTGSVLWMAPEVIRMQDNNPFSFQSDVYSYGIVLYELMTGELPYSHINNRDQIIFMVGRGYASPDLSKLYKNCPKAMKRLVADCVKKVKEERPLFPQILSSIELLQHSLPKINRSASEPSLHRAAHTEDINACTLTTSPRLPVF

B-Raf V600E = B-Raf V600E (Homo sapiens, UniProt P15056, V600E); assay: Kinase activity assay, B-Raf V600E; assay type: biochemical; conditions: read-out: activity toward kinase B-Raf V600E, IC50
Chain of B-Raf V600E (P15056 whole entry V600E): as the sequence (P15056 whole entry) above, with V600E counted along it

TEC = molecular target: T1, TEC (Homo sapiens, UniProt P42680); assay: Kinase activity assay, TEC
T1 sequence (P42680 1-631): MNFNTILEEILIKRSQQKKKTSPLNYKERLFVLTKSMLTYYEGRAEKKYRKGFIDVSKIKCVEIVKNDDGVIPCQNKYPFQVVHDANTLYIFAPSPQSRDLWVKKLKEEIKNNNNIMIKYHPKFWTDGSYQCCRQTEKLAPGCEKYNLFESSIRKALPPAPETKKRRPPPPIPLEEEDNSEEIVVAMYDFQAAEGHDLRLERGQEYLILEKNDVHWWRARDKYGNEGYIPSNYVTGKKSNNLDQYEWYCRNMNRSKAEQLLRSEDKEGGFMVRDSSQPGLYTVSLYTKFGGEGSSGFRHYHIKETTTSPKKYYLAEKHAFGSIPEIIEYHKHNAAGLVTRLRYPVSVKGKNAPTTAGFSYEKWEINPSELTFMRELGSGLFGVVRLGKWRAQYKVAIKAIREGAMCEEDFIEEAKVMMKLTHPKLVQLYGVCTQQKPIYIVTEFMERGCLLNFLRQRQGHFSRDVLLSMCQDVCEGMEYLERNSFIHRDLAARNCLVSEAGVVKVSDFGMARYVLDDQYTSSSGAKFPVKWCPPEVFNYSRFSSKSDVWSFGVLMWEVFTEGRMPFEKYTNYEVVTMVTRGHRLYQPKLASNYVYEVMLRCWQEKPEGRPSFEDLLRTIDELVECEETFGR

Fms = Fms (Homo sapiens, UniProt P07333); assay: Kinase activity assay, Fms

Chain of Kdr (P35968 20-1356): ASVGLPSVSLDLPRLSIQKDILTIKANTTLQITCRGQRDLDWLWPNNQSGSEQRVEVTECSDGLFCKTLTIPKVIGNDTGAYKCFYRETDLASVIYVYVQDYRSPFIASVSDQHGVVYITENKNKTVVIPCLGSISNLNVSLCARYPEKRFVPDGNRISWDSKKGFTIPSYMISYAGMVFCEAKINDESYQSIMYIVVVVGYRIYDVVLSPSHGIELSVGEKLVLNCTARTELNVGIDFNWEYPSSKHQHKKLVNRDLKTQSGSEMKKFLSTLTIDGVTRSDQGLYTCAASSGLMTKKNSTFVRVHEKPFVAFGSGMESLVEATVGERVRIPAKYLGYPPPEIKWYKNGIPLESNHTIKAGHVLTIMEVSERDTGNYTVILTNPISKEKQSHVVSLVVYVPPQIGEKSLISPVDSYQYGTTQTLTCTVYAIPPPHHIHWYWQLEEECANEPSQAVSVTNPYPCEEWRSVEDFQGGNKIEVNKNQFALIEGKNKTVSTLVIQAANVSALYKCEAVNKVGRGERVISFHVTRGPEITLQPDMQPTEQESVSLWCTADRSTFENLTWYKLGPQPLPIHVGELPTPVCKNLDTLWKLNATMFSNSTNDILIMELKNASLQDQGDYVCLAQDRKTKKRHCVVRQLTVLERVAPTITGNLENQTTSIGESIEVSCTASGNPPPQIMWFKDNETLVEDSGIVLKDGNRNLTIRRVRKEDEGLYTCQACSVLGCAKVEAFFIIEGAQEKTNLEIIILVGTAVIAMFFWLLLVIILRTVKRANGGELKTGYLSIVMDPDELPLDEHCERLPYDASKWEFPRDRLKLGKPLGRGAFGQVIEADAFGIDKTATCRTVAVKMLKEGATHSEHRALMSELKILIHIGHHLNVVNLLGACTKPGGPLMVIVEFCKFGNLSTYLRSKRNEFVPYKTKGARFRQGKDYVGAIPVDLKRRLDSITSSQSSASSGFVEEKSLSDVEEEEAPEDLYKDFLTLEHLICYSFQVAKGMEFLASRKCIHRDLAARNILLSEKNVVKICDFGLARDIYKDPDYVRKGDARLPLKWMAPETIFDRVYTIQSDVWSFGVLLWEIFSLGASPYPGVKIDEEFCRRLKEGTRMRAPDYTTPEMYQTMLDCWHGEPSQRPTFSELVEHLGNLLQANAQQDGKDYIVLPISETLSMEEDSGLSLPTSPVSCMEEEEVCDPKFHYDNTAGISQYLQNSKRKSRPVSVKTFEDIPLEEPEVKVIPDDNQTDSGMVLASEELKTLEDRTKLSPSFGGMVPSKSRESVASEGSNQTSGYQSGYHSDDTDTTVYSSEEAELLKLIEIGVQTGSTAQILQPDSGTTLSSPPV
Chain of MAP4K4 (O95819 whole entry): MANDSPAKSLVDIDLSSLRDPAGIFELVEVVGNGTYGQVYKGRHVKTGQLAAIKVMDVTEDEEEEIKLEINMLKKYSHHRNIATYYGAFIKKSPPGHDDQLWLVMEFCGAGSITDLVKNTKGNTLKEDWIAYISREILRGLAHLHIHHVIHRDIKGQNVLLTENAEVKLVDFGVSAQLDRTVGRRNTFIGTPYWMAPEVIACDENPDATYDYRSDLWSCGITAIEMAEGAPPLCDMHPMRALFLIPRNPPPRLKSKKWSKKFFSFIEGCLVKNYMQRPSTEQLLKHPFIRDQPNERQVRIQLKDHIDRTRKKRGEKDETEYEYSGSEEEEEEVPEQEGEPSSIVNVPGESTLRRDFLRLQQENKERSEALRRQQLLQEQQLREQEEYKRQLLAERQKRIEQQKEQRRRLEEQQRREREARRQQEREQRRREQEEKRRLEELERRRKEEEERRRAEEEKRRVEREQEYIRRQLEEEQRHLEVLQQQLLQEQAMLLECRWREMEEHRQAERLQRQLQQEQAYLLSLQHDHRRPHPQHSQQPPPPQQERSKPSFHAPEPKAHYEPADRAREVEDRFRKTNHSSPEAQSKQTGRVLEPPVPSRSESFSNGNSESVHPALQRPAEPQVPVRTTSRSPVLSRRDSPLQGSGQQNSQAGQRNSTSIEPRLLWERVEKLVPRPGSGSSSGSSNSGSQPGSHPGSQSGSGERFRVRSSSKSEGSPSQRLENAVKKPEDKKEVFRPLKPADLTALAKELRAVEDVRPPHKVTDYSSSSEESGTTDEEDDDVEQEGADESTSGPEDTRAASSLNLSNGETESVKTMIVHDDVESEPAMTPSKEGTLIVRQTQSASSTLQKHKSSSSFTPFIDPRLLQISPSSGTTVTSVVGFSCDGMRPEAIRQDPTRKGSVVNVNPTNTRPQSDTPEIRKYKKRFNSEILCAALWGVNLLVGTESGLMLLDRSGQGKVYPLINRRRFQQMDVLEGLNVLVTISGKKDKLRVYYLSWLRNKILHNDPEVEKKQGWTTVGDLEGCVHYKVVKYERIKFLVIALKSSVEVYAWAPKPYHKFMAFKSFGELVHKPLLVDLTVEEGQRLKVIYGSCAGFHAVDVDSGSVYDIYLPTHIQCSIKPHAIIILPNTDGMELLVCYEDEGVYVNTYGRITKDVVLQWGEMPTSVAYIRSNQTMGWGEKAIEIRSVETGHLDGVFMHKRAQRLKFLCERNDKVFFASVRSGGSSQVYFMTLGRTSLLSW

| IC50 (MAP4K4) | IC50 (Kdr) | IC50 (Kit) | IC50 (B-Raf) | IC50 (Src) | IC50 (C-Raf) | IC50 (B-Raf V600E) | IC50 (TEC) | IC50 (Fms) | SMILES |
| --- | --- | --- | --- | --- | --- | --- | --- | --- | --- |
| ≤ 10 µM | ≤ 10 µM | ≤ 10 µM | ≤ 10 µM | ≤ 10 µM | ≤ 10 µM | ≤ 10 µM | ≤ 10 µM |  | COc1ccnc2[nH]cc(C(=O)c3c(F)ccc(NS(=O)(=O)c4ccccc4F)c3F)c12 [P-2021, N-[2,4-Difluoro-3-(4-methoxy-1H-pyrrolo[2,3-b]pyridine-3-carbonyl)-phenyl]-2-fluoro-benzenesulfonamide] |
| ≤ 10 µM | ≤ 10 µM | ≤ 10 µM | ≤ 10 µM | ≤ 10 µM | ≤ 10 µM | ≤ 10 µM | ≤ 10 µM |  | COc1ccnc2[nH]cc(C(=O)c3c(F)ccc(NS(=O)(=O)c4cccc(F)c4)c3F)c12 [P-2023, N-[2,4-Difluoro-3-(4-methoxy-1H-pyrrolo[2,3-b]pyridine-3-carbonyl)-phenyl]-3-fluoro-benzenesulfonamide] |
| ≤ 10 µM | ≤ 10 µM | ≤ 10 µM | ≤ 10 µM | ≤ 10 µM | ≤ 10 µM | ≤ 10 µM | ≤ 10 µM |  | Cc1cnc2[nH]cc(C(=O)c3c(F)ccc(NS(=O)(=O)c4c(F)cccc4F)c3F)c2c1 [P-2024, N-[2,4-Difluoro-3-(5-methyl-1H-pyrrolo[2,3-b]pyridine-3-carbonyl)-phenyl]-2,6-difluoro-benzenesulfonamide] |
| ≤ 10 µM | ≤ 10 µM | ≤ 10 µM | ≤ 10 µM | ≤ 10 µM | ≤ 10 µM | ≤ 10 µM | ≤ 10 µM |  | N#Cc1cnc2[nH]cc(C(=O)c3c(F)ccc(NS(=O)(=O)c4c(F)cccc4F)c3F)c2c1 [P-2029, N-[3-(5-Cyano-1H-pyrrolo[2,3-b]pyridine-3-carbonyl)-2,4-difluoro-phenyl]-2,6-difluoro-benzenesulfonamide] |
| ≤ 10 µM | ≤ 10 µM |  | ≤ 10 µM | ≤ 10 µM | ≤ 10 µM | ≤ 10 µM | ≤ 10 µM |  | Cc1cnc2[nH]cc(C(=O)c3c(F)ccc(NS(=O)(=O)c4ccccn4)c3F)c2c1 [P-2070, Pyridine-2-sulfonic acid [2,4-difluoro-3-(5-methyl-1H-pyrrolo[2,3-b]pyridine-3-carbonyl)-phenyl]-amide] |
| ≤ 10 µM |  | ≤ 10 µM |  | ≤ 10 µM |  |  | ≤ 10 µM |  | O=C(c1c(F)ccc(NS(=O)(=O)c2cccnc2)c1F)c1c[nH]c2ncc(Cl)cc12 [P-2071, Pyridine-3-sulfonic acid [3-(5-chloro-1H-pyrrolo[2,3-b]pyridine-3-carbonyl)-2,4-difluoro-phenyl]-amide] |
|  | ≤ 10 µM | ≤ 10 µM |  |  |  | ≤ 10 µM | ≤ 10 µM | ≤ 10 µM | O=C(c1cc(NS(=O)(=O)c2cccc(Cl)c2)ccc1F)c1c[nH]c2ncc(Cl)cc12 [P-2111, 3-Chloro-N-[3-(5-chloro-1H-pyrrolo[2,3-b]pyridine-3-carbonyl)-4-fluoro-phenyl]-benzenesulfonamide] |
|  | ≤ 10 µM | ≤ 10 µM |  |  |  |  | ≤ 10 µM | ≤ 10 µM | O=C(c1cc(NS(=O)(=O)c2cccc(Cl)c2)ccc1F)c1c[nH]c2ncccc12 [P-2118, 3-Chloro-N-[4-fluoro-3-(1H-pyrrolo[2,3-b]pyridine-3-carbonyl)-phenyl]-benzenesulfonamide] |
|  | ≤ 10 µM | ≤ 10 µM |  |  |  | ≤ 10 µM | ≤ 10 µM | ≤ 10 µM | Cn1cc(-c2cnc3[nH]cc(C(=O)c4cccc(NS(=O)(=O)c5ccc(OC(F)(F)F)cc5)c4)c3c2)cn1 [P-2132, N-{3-[5-(1-Methyl-1H-pyrazol-4-yl)-1H-pyrrolo[2,3-b]pyridine-3-carbonyl]-phenyl}-4-trifluoromethoxy-benzenesulfonamide] |
|  | ≤ 10 µM | ≤ 10 µM |  |  |  | ≤ 10 µM | ≤ 10 µM | ≤ 10 µM | Cn1cc(-c2cnc3[nH]cc(C(=O)c4cccc(NS(=O)(=O)c5cccc(OC(F)(F)F)c5)c4)c3c2)cn1 [P-2133, N-{3-[5-(1-Methyl-1H-pyrazol-4-yl)-1H-pyrrolo[2,3-b]pyridine-3-carbonyl]-phenyl}-3-trifluoromethoxy-benzenesulfonamide] |
|  | ≤ 10 µM | ≤ 10 µM |  |  |  | ≤ 10 µM | ≤ 10 µM | ≤ 10 µM | Cn1cc(-c2cnc3[nH]cc(C(=O)c4cccc(NS(=O)(=O)c5ccc(C(F)(F)F)cc5)c4)c3c2)cn1 [P-2135, N-{3-[5-(1-Methyl-1H-pyrazol-4-yl)-1H-pyrrolo[2,3-b]pyridine-3-carbonyl]-phenyl}-4-trifluoromethyl-benzenesulfonamide] |
|  |  |  | ≤ 10 µM |  |  | ≤ 10 µM | ≤ 10 µM | ≤ 10 µM | CCCS(=O)(=O)Nc1ccc(F)c(C(=O)c2c[nH]c3ncc(-c4ccc(O)cc4)cc23)c1F [P-2198, Propane-1-sulfonic acid {2,4-difluoro-3-[5-(4-hydroxy-phenyl)-1H-pyrrolo[2,3-b]pyridine-3-carbonyl]-phenyl}-amide] |
|  | ≤ 10 µM | ≤ 10 µM | ≤ 10 µM |  |  | ≤ 10 µM | ≤ 10 µM | ≤ 10 µM | CCCS(=O)(=O)Nc1ccc(F)c(C(=O)c2c[nH]c3ncc(C(=O)OCC)cc23)c1F [P-2207, 3-[2,6-Difluoro-3-(propane-1-sulfonylamino)-benzoyl]-1H-pyrrolo[2,3-b]pyridine-5-carboxylic acid ethyl ester] |
|  | ≤ 10 µM |  | ≤ 10 µM |  |  | ≤ 10 µM | ≤ 10 µM | ≤ 10 µM | CCCS(=O)(=O)Nc1ccc(F)c(C(=O)c2c[nH]c3ncc(-c4ccccc4Cl)cc23)c1F [P-2212, Propane-1-sulfonic acid {3-[5-(2-chloro-phenyl)-1H-pyrrolo[2,3-b]pyridine-3-carbonyl]-2,4-difluoro-phenyl}-amide] |
| ≤ 10 µM | ≤ 10 µM | ≤ 10 µM |  | ≤ 10 µM |  | ≤ 10 µM | ≤ 10 µM |  | CCCC(C)S(=O)(=O)Nc1ccc(F)c(C(=O)c2c[nH]c3ncc(OC)cc23)c1F (stereo not shown) [P-2309, Pentane-2-sulfonic acid [2,4-difluoro-3-(5-methoxy-1H-pyrrolo[2,3-b]pyridine-3-carbonyl)-phenyl]-amide] |
| ≤ 10 µM | ≤ 10 µM |  |  | ≤ 10 µM | ≤ 10 µM | ≤ 10 µM | ≤ 10 µM |  | CCC(C)S(=O)(=O)Nc1ccc(F)c(C(=O)c2c[nH]c3ncc(C)cc23)c1F (stereo not shown) [P-2312, Butane-2-sulfonic acid [2,4-difluoro-3-(5-methyl-1H-pyrrolo[2,3-b]pyridine-3-carbonyl)-phenyl]-amide] |
| ≤ 10 µM | ≤ 10 µM |  | ≤ 10 µM | ≤ 10 µM | ≤ 10 µM | ≤ 10 µM | ≤ 10 µM |  | Cc1cnc2[nH]cc(C(=O)c3c(F)ccc(NS(=O)(=O)N(C)C)c3F)c2c1 [P-2382, N,N-dimethylamino-sulfonic acid [2,4-difluoro-3-(5-methyl-1H-pyrrolo[2,3-b]pyridine-3-carbonyl)-phenyl]-amide] |
|  |  | ≤ 10 µM |  |  |  |  | ≤ 10 µM | ≤ 10 µM | O=C(c1cc(NS(=O)(=O)C2CCCCC2)ccc1F)c1c[nH]c2ncccc12 [P-2441, Cyclohexanesulfonic acid [4-fluoro-3-(1H-pyrrolo[2,3-b]pyridine-3-carbonyl)-phenyl]-amide] |
|  | ≤ 10 µM |  |  |  |  | ≤ 10 µM | ≤ 10 µM | ≤ 10 µM | O=C(c1cc(NS(=O)(=O)C2CCCC2)ccc1F)c1c[nH]c2ncccc12 [P-2442, Cyclopentanesulfonic acid [4-fluoro-3-(1H-pyrrolo[2,3-b]pyridine-3-carbonyl)-phenyl]-amide] |
| ≤ 10 µM |  |  |  |  | ≤ 10 µM | ≤ 10 µM | ≤ 10 µM |  | CCCS(=O)(=O)Nc1cccc(S(=O)(=O)c2c[nH]c3ncc(Cl)cc23)c1 [P-2467, Propane-1-sulfonic acid [3-(5-chloro-1H-pyrrolo[2,3-b]pyridine-3-sulfonyl)-phenyl]-amide] |
